Measured values taken from patent publication US20230286969A1, “AROMATIC SPIRO RING AMIDE DERIVATIVES FOR THE TREATMENT AND PROPHYLAXIS OF HEPATITIS B VIRUS INFECTION” (Hoffmann-La Roche Inc., priority 2020, published 2023).
Read-outs that look alike come from different tables or passages of the source.

Tests used:
Type in all cases: cell-based
HBsAg = experiment: PHH HBV natural infection assay, HBsAg (alphalisa)
In short: (§1)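 Primary human hepatocytes infected with HBV at 200 GE/cell plus 4% PEG8000 for 24 h, then sandwich-cultured 72 h. Compounds were added in two refreshes 72 h apart. HBsAg and HBeAg in supernatant measured by AlphaLISA.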

HBeAg = experiment: PHH HBV natural infection assay, HBeAg (alphalisa)
In short: as §1

[1] = test system: primary human hepatocyte (PHH); experiment: PHH natural infection assay, cytotoxicity (Cell Counting Kit-8); conditions: HBV-infected primary human hepatocytes, CCK8, end of treatment
In short: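 HBV-infected at 200 GE/cell with 4% PEG8000 for 24 h, then sandwich-cultured 72 h in 1% DMSO and 0.25 mg/mL matrix gel. Compound added twice at 72-h intervals; supernatant HBsAg and HBeAg read by AlphaLISA, HBV DNA by quantitative fluorescence PCR kit. Cytotoxicity by CCK-8.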

SMILES	IC50 (HBsAg; read-out: HBsAg IC50; HBV-infected primary human hepatocytes, supernatant, compound medium refreshed two times with 72-hour interval) [µM]	IC50 (HBeAg; read-out: HbeAg IC50; HBV-infected primary human hepatocytes, supernatant, compound medium refreshed two times with 72-hour interval) [µM]	CC50 [1] [µM]	IC50 (HBsAg; HBV-infected primary human hepatocytes, supernatant, compound medium refreshed two times with 72-hour interval; read-out: HBsAg IC50) [µM]	IC50 (HBeAg; HBV-infected primary human hepatocytes, supernatant, compound medium refreshed two times with 72-hour interval; read-out: HbeAg IC50) [µM]
N=S(=O)(c1ccc(C(=O)NC2CC3(C2)CC(c2nc4cc(Cl)cnc4o2)C3)o1)C1CC1 (single isomer, unassigned) [Example 64-b, N-[6-(6-chlorooxazolo[5,4-b]pyridin-2-yl)spiro[3.3]heptan-2-yl]-5-(cyclopropylsulfonimidoyl)furan-2-carboxamide]	9.46	9.13	> 10	–	–
CCC(=O)NS(=O)(=O)c1ccc(C(=O)NC2CC3(C2)CC(c2nc4cc(Cl)ccc4o2)C3)o1 (stereo not drawn) [Example 68, (Sa)—N-[6-(5-chloro-1,3-benzoxazol-2-yl)spiro[3.3]heptan-2-yl]-5-(propanoylsulfamoyl)furan-2-carboxamide, or (Ra)—N-[6-(5-chloro-1,3-benzoxazol-2-yl)spiro[3.3]heptan-2-yl]-5-(propanoylsulfamoyl)furan-2-carboxamide]	–	–	> 100	0.626	0.371
